Experimental findings from patent US9227977B2, “Phosphoinositide 3-kinase inhibitors” (RESPIVERT LTD., priority 2013, dated 2016) are described below.

The experiment has as its system LPS-induced airway neutrophilia in rats. Kind of experiment: LPS-induced airway neutrophil accumulation in rats. In kind it is in vivo, rat. The following applies: i-t; for Neutrophil numbers in BALF: mean ± SEM. Here is the method: Non-fasted rats were dosed with either vehicle or the test compound by intra-tracheal administration (dose volume 100 μL) at time points T=−2 h, −8 h, or −12 h with respect to the start of LPS treatment. The LPS solution (0.3 mg/mL) was aerosolised using a De Vibliss ultrasonic nebuliser 2000 (7 mL during 30 min). At eight hr after LPS challenge, the trachea was cannulated and bronchoalveolar lavage fluid (BALF) extracted by infusing and then withdrawing PBS (1 mL) into the lungs via the tracheal catheter. This procedure was repeated to provide approximately 2 mL of lavage fluid.
Total cell numbers in the BALF samples were measured using a Countess automated cell counter (Invitrogen). Cytospin smears of the BALF samples were prepared by centrifugation at 1200 rpm for 2 min at RT and stained using a DiffQuik stain system (Dade Behring) for differential cell counts. Cells were counted using oil immersion microscopy. Data are expressed as neutrophil number of cells per mL of BALF (mean±S.E.M).

With `COCCOCCOCC#Cc1cccc2nc(Cn3nc(-c4cc(O)cc(F)c4)c4c(N)ncnc43)n(Cc3ccccc3C(F)(F)F)c(=O)c12` [Compound (I), 2-((4-Amino-3-(3-fluoro-5-hydroxyphenyl)-1H-pyrazolo[3,4-d]pyrimidin-1-yl)methyl)-5-(3-(2-(2-methoxyethoxy)ethoxy)prop-1-yn-1-yl)-3-(2-(trifluoromethyl)benzyl)quinazolin-4(3H)-one], the “% inhibition of neutrophil numbers in BALF” value is, setting by setting: (0.05 mg/mL, pre-dose 2 hr) 9%; (0.2 mg/mL, pre-dose 2 hr) 58%; (0.2 mg/mL, pre-dose 8 hr) 33%; (0.2 mg/mL, pre-dose 12 h) 10%; (1.0 mg/mL, pre-dose 2 hr) 73%. Besides, the “Neutrophil numbers in BALF” value reads like this: (0.05 mg/mL, pre-dose 2 hr) 13.2 ± 2.3 x10^5/mL; (0.2 mg/mL, pre-dose 2 hr) 6.3 ± 1.6 x10^5/mL; (0.2 mg/mL, pre-dose 8 hr) 10.1 ± 1.8 x10^5/mL; (0.2 mg/mL, pre-dose 12 h) 13.6 ± 2.7 x10^5/mL; (1.0 mg/mL, pre-dose 2 hr) 4.1 ± 0.7 x10^5/mL.
